Results from ChEMBL document CHEMBL6096686, “Lanosterol 14α-Demethylase (CYP51)/Heat Shock Protein 90 (Hsp90) Dual Inhibitors for the Treatment of Invasive Candidiasis” (J Med Chem, 2025).
Converted amounts (≈) assume the structure as drawn. The source made the active and inactive calls. No cut-off for these calls is given here.

Legend:
Nakaseomyces glabratus [1] = test: Antifungal activity against Candida glabrata 7804 incubated for 48 hrs by CLSI based liquid microdilution technique; format: functional
Candida albicans [2] = test: Antifungal activity against Candida albicans SC5314 incubated for 48 hrs by CLSI based liquid microdilution technique; format: functional
Cryptococcus neoformans [3] = test: Antifungal activity against Cryptococcus neoformans H99 incubated for 72 hrs by CLSI based liquid microdilution technique; format: functional
Pichia kudriavzevii [4] = test: Antifungal activity against Candida krusei 10153 incubated for 48 hrs by CLSI based liquid microdilution technique; format: functional
[5] = target: Lanosterol 14-alpha demethylase (Candida albicans (strain SC5314 / ATCC MYA-2876) (Yeast), UniProt P10613); test: Inhibition of CYP51 in Candida albicans SC5314 assessed as decrease in ergosterol level at 4 ug/ml measured after 48 hrs by GC-MS analysis; conditions: at 4 µg/mL
Cryptococcus neoformans [6] = test: Synergistic antifungal against Cryptococcus neoformans H99 incubated for 72 hrs in presence of FLC by CLSI based liquid microdilution technique; format: functional
Candida albicans [7] = test: Synergistic antifungal activity against Candida albicans SC5314 incubated for 48 hrs in presence of FLC by CLSI based liquid microdilution technique; format: functional
Candida albicans [8] = test: Synergistic antifungal activity against Candida albicans SC5314 infected in immunosuppressed ICR mouse assessed as reduction in fungal burden in kidney at 10 mg/kg, ip treated for 5 days consecutively in presence of FLC; format: functional, organism-based; conditions: time 5.0 day
Candida albicans [9] = test: Inhibition of biofilm formation in Candida albicans SC5314 at 4 ug/ml incubated for 24 hrs by XTT reduction method relative to control; format: functional; conditions: dose 4.0 µg/ml
[10] = Cytotoxicity against human L02 cells measured after 72 hrs by CCK8 assay; format: toxicity, cell-based
[11] = Cytotoxicity against HUVEC cells measured after 72 hrs by CCK8 assay; format: toxicity, cell-based; conditions: human
Heat shock protein HSP90 = Heat shock protein HSP90 (Homo sapiens, UniProt P07900+P08238); test: Inhibition of human HSP90 using FITC-Geldanamycin as substrate incubated for 6 hrs by fluorescence polarization assay; format: protein assay
[12] = target: Heat shock protein 90 homolog (Candida albicans (strain SC5314 / ATCC MYA-2876) (Yeast), UniProt P46598); test: Inhibition of HSP90 extracted from Candida albicans SC5314 lysate using FITC-Geldanamycin as substrate incubated for 6 hrs by fluorescence polarization assay; format: subcellular
Nakaseomyces glabratus [13] = test: Synergistic antifungal activity against Candida glabrata 7804 incubated for 48 hrs in presence of FLC by CLSI based liquid microdilution technique; format: functional
Pichia kudriavzevii [14] = test: Synergistic antifungal activity against Candida krusei 10153 incubated for 48 hrs in presence of FLC by CLSI based liquid microdilution technique; format: functional
Candida albicans [15] = test: Antifungal activity against Candida albicans SC5314 infected in immunosuppressed ICR mouse assessed as reduction in fungal burden in kidney at 10 mg/kg, ip treated for 5 days consecutively; format: functional, organism-based; conditions: time 5.0 day

Sequence of Heat shock protein 90 homolog (P46598 whole entry): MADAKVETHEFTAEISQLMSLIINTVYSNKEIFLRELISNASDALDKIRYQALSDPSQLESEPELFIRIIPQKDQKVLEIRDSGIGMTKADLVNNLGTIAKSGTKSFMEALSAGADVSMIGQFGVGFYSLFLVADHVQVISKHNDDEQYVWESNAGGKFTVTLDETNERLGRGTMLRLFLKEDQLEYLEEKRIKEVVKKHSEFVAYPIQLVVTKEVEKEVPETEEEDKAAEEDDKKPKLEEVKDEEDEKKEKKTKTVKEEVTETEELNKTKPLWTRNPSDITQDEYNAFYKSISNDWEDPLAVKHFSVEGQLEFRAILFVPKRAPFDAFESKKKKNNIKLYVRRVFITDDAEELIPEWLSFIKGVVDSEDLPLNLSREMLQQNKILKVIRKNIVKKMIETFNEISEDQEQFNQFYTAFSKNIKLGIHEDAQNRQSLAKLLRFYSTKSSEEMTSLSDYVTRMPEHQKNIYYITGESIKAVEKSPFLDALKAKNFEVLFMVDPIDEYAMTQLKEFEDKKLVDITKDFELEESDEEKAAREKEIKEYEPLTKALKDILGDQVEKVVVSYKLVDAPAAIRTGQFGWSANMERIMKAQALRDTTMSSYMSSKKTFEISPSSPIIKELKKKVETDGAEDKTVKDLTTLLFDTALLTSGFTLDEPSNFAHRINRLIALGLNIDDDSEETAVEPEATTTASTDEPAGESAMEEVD
Sequence of Lanosterol 14-alpha demethylase (P10613 whole entry): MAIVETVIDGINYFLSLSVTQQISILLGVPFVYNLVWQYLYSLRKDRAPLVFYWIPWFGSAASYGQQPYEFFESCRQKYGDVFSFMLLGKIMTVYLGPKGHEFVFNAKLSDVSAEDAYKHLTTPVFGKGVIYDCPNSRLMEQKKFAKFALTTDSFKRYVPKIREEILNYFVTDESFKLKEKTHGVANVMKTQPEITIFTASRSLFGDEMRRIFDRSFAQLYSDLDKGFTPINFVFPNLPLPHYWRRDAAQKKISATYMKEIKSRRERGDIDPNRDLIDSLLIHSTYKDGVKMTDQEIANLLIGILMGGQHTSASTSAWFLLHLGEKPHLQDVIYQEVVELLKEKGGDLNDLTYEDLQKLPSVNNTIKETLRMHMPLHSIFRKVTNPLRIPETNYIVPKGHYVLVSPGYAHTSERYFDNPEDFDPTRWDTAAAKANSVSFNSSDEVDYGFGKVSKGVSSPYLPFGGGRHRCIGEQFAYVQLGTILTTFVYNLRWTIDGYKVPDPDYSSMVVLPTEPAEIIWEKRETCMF

Compound	MIC80 (Nakaseomyces glabratus [1]) [µg/mL]	MIC80 (Candida albicans [2]) [µg/mL]	MIC80 (Cryptococcus neoformans [3]) [µg/mL]	MIC80 (Pichia kudriavzevii [4]) [µg/mL]	inhibition (INH) [5]	fractional inhibitory concentration index (FICI) (Cryptococcus neoformans [6])	fractional inhibitory concentration index (FICI) (Candida albicans [7])	Activity (Candida albicans [8])	inhibition (Candida albicans [9])	IC50 at 72 h [10] [nM]	IC50 at 72 h [11] [nM]	IC50 (Heat shock protein HSP90) [nM]	IC50 [12] [nM]	fractional inhibitory concentration index (FICI) (Nakaseomyces glabratus [13])	fractional inhibitory concentration index (FICI) (Pichia kudriavzevii [14])	Activity (Candida albicans [15])
CCNC(=O)c1noc(-c2cc(-c3ccc(C)cc3)c(O)cc2O)c1-c1ccc(CN2CCN(C(=O)CCCCCOc3ccc(CN(C)CC(O)(Cn4cncn4)c4ccc(F)cc4F)cc3)CC2)cc1 (stereo not drawn)	16 (≈ 16.3 µM)	4 (≈ 4.07 µM)	4 (≈ 4.07 µM)	> 64												
CCNC(=O)c1noc(-c2cc(-c3ccc(C)cc3)c(O)cc2O)c1-c1ccc(CN2CCOCC2)cc1	> 64	32 (≈ 62.3 µM)	32 (≈ 62.3 µM)	> 64	Not_active	0.31	0.13	Active	Active; Exhibited Little Inhibitory Effect	680	680	1540	390	0.5	2	inactive
CCN(C(=O)c1cc(-c2ccc(C)cc2)c(O)cc1O)c1ccc(CN2CCN(C(=O)CCCOc3ccc(CN(C)CC(O)(Cn4cncn4)c4ccc(F)cc4F)cc3)CC2)cc1 (stereo not drawn)	16 (≈ 18 µM)	8 (≈ 9.01 µM)	4 (≈ 4.5 µM)	16 (≈ 18 µM)												
CCN(C(=O)c1cc(-c2ccc(C)cc2)c(O)cc1O)c1ccc(CN2CCN(C(=O)CCCCCOc3ccc(CN(C)CC(O)(Cn4cncn4)c4ccc(F)cc4F)cc3)CC2)cc1 (stereo not drawn)	16 (≈ 17.5 µM)	8 (≈ 8.73 µM)	8 (≈ 8.73 µM)	32 (≈ 34.9 µM)												
